Key:
[1] = tested on: CAD patients with hypertension; experiment: INVEST trial: new diagnosis of diabetes; assay type: in vivo; conditions: for HR of developing diabetes: vs NCAS not taking trandolapril or hydrochlorothiazide; for Effect of add-on medication on risk of diabetes: preliminary analyses adjusted for 5 baseline covariates and average daily dose
From the text: The primary outcome was the first occurrence of death (all-cause), nonfatal MI, or nonfatal stroke by intention-to-treat analysis. The MI and stroke definitions are detailed on the INVEST Web site. These 3 components individually were the main secondary outcomes. Additional outcomes included time to most serious event (ranked from death as most serious, to MI, to stroke as least serious), cardiovascular death (definite or presumed), angina, cardiovascular hospitalizations, blood pressure control, cancer, Alzheimer disease, Parkinson disease, and gastrointestinal tract bleeding. Shortly after the study started, new information became available on the potential for ACE inhibitors to prevent or delay the onset of diabetes. Accordingly, at the recommendation of the independent data safety and monitoring committee, new diagnosis of diabetes was added as an outcome early in the recruitment phase of the study.
Of the 8098 CAS patients without diabetes at entry, 569 (7.03%) were diagnosed as having diabetes during follow-up. Of the 8078 NCAS patients without diabetes at entry, 665 (8.23%) were diagnosed as having diabetes during follow-up (RR, 0.85; 95% CI, 0.77-0.95). Patients in the CAS group were also less likely to die or develop diabetes compared with patients in the NCAS group (1050 [12.97%] vs 1177 [14.57%]; RR, 0.89; 95% CI, 0.82-0.96) and less likely to have an event in the primary outcome cluster or develop diabetes (1185 [14.63%] vs 1313 [16.25%]; RR, 0.90; 95% CI, 0.84-0.97). To explore possible explanations for reduced risk of diabetes, we conducted preliminary analyses adjusting for the 5 pre-specified baseline covariates (age, race, sex, prior MI, and prior heart failure) and included factors for average daily dose of add-on medication (trandolapril and/or hydrochlorothiazide). […] A 2-mg dose of trandolapril was associated with a HR of 0.86 (95% CI, 0.74-1.00) and a 4-mg dose was associated with a HR of 0.77 (95% CI, 0.62-0.96). In the NCAS group, a 2-mg dose of trandolapril was associated with a HR of 0.99 (95% CI, 0.90-1.08) and a 4-mg dose was associated with a HR of 0.98 (95% CI, 0.82-1.18). […] Compared with those in the NCAS group not taking either trandolapril or hydrochlorothiazide, the addition of 12.5 mg of hydrochlorothiazide was associated with a HR of 1.17 (95% CI, 1.09-1.25) and 25 mg of hydrochlorothiazide was associated with a HR of 1.36 (95% CI, 1.18-1.57).

[2] = tested on: hypertensive patients randomized to the calcium antagonist strategy; experiment: INVEST subanalysis: BP reduction by addition of HCTZ to verapamil SR/trandolapril; assay type: in vivo
Method: Subanalysis Design: INVEST afforded an opportunity to analyze unique and specific combinations of antihypertensive drugs due to the data accumulated for prescription date, drug, regimen, and dose. One subanalysis was performed to evaluate the incremental benefit of BP reduction by the addition of HCTZ to various dose combinations of verapamil SR and trandolapril in patients randomized to the calcium antagonist strategy. […]
Patients who received the verapamil SR/trandolapril combination as their first randomized drug prescription in INVEST, and who received no other drug prescription or gap in medication until their first HCTZ prescription added to the initial verapamil SR/trandolapril combination dose, were selected for this subgroup analysis. […] Summary statistics for change from baseline for SBP and DBP to the last observation at each dose level for both the verapamil SR/trandolapril dual combination and the verapamil SR/trandolapril/HCTZ triple combination were analyzed. […] In this subanalysis the incremental effect of HCTZ on BP reduction was evaluated for any dose of HCTZ.

[3] = Group 1, added to verapamil SR/trandolapril 180/2 mg
[4] = Group 2, added to verapamil SR/trandolapril 240/2 mg
[5] = Group 3, added to verapamil SR/trandolapril 240/4 mg

## NS(=O)(=O)c1cc2c(cc1Cl)NCNS2(=O)=O [hydrochlorothiazide]
[1]; 25 mg, CAS group
  HR of developing diabetes: 1.28
[1]; 25 mg, NCAS group
  HR of developing diabetes: 1.36
[1]; addition of 12.5 mg, CAS group
  HR of developing diabetes: 1.11
[1]; addition of 12.5 mg, NCAS group
  HR of developing diabetes: 1.17
[1]
  Effect of add-on medication on risk of diabetes: non-statistically significant increased risk of diabetes
[2]; [3]
  Decrease of mean diastolic BP with the addition of HCTZ: 1.1 mm Hg
  Decrease of mean systolic BP after the addition of HCTZ: 7.1 mm Hg
[2]; [4]
  Decrease of mean diastolic BP with the addition of HCTZ: 4.2 mm Hg
  Decrease of mean systolic BP after the addition of HCTZ: 6.5 mm Hg
[2]; [5]
  Decrease of mean diastolic BP with the addition of HCTZ: 2.3 mm Hg
  Decrease of mean systolic BP after the addition of HCTZ: 3.2 mm Hg
[2]; each verapamil SR/trandolapril combination group, listed as HCTZ
  Incremental BP reduction with addition of HCTZ: clinically significant, incremental BP reduction

## CCOC(=O)[C@H](CCc1ccccc1)N[C@@H](C)C(=O)N1[C@H](C(=O)O)C[C@H]2CCCC[C@@H]21 [trandolapril]
[1]; 2-mg dose, CAS group
  HR of developing diabetes: 0.86
[1]; 2-mg dose, NCAS group
  HR of developing diabetes: 0.99
[1]; 4-mg dose, CAS group
  HR of developing diabetes: 0.77
[1]; 4-mg dose, NCAS group
  HR of developing diabetes: 0.98
[1]
  Effect of add-on medication on risk of diabetes: appeared to confer a protective effect in the CAS group
